Source: ChEMBL document CHEMBL1158556, “Design of pentapeptidic BACE1 inhibitors with carboxylic acid bioisosteres at P1' and P4 positions” (Bioorg Med Chem, 2010)

Tests used:
Beta-secretase 1 [1] = target: T1, Beta-secretase 1 (Homo sapiens, UniProt P56817); experiment: Inhibition of human BACE1 at 2 uM by FRET assay
Beta-secretase 1 [2] = target: T1, Beta-secretase 1; experiment: Inhibition of human BACE1 by FRET assay
Beta-secretase 1 [3] = target: T1, Beta-secretase 1; experiment: Inhibition of human BACE1 at 0.2 uM by FRET assay

T1 sequence (P56817 whole entry): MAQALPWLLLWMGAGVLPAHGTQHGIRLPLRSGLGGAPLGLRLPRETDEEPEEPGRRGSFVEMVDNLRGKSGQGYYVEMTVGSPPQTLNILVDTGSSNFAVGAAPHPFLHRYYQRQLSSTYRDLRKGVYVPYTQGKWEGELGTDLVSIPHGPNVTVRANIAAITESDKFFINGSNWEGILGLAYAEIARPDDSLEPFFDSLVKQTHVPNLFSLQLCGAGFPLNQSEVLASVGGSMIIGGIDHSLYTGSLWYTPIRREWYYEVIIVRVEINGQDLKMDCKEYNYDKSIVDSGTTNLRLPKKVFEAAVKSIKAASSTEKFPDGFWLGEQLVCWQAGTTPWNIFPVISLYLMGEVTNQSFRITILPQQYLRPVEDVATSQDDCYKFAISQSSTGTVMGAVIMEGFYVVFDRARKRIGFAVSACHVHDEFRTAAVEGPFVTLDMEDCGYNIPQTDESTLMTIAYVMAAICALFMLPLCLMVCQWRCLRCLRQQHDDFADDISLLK

Structure (SMILES) | inhibition (Beta-secretase 1 [1]) [%] | inhibition (Beta-secretase 1 [3]) [%] | IC50 (Beta-secretase 1 [2]) [nM]
CC(C)C[C@H](NC(=O)[C@@H](NC(=O)[C@@H](N)CNC(=O)c1nn[nH]n1)C(C)C)C(=O)N[C@@H](Cc1ccccc1)[C@@H](O)C(=O)Nc1cccc(-c2nn[nH]n2)c1 | > 99 |  | 
CC(C)C[C@H](NC(=O)[C@@H](NC(=O)[C@@H](N)CNC(=O)c1[nH]c(=O)[nH]c(=O)c1F)C(C)C)C(=O)N[C@@H](Cc1ccccc1)[C@@H](O)C(=O)Nc1cccc(-c2noc(=O)[nH]2)c1 | > 99 | 96 | 7.9
CC(C)[C@H](NC(=O)[C@@H](N)CNC(=O)c1c[nH]cn1)C(=O)N[C@@H](CC1CCCCC1)C(=O)N[C@@H](Cc1ccccc1)[C@@H](O)C(=O)Nc1cccc(-c2nn[nH]n2)c1 | 83 | 45 | 
CC(C)C[C@H](NC(=O)[C@@H](NC(=O)[C@@H](N)CNC(=O)c1cc(O)ccc1O)C(C)C)C(=O)N[C@@H](Cc1ccccc1)[C@@H](O)C(=O)Nc1cccc(-c2nc(=O)o[nH]2)c1 |  |  | 10
CC(C)C[C@H](NC(=O)[C@@H](NC(=O)[C@@H](N)CNC(=O)c1[nH]c(=O)[nH]c(=O)c1F)C(C)C)C(=O)N[C@@H](Cc1ccccc1)[C@@H](O)C(=O)Nc1cccc(-c2nn[nH]n2)c1 | > 99 |  | 
CC(C)C[C@H](NC(=O)[C@@H](NC(=O)[C@@H](N)CNC(=O)c1cc(O)ccc1O)C(C)C)C(=O)N[C@@H](Cc1ccccc1)[C@@H](O)C(=O)Nc1cccc(-c2noc(=O)[nH]2)c1 | > 99 | 92 | 
CC(C)C[C@H](NC(=O)[C@@H](NC(=O)[C@@H](N)CNC(=O)c1cc(O)ccc1O)C(C)C)C(=O)N[C@@H](Cc1ccccc1)[C@@H](O)C(=O)Nc1cccc(-c2nc(=S)o[nH]2)c1 |  |  | 10.6
CC(C)[C@H](NC(=O)[C@@H](N)CNC(=O)c1[nH]c(=O)[nH]c(=O)c1F)C(=O)N[C@@H](CC1CCCCC1)C(=O)N[C@@H](Cc1ccccc1)[C@@H](O)C(=O)Nc1cccc(-c2nn[nH]n2)c1 | > 99 |  | 
CC(C)C[C@H](NC(=O)[C@@H](NC(=O)[C@@H](N)CNC(=O)c1[nH]c(=O)[nH]c(=O)c1F)C(C)C)C(=O)N[C@@H](Cc1ccccc1)[C@@H](O)C(=O)Nc1cccc(-c2nsc(=O)[nH]2)c1 | 99 | 93 | 
CC(C)[C@H](NC(=O)[C@@H](N)CNC(=O)c1nc[nH]n1)C(=O)N[C@@H](CC1CCCCC1)C(=O)N[C@@H](Cc1ccccc1)[C@@H](O)C(=O)Nc1cccc(-c2nn[nH]n2)c1 | 94 | 69 | 
CC(C)[C@H](NC(=O)[C@@H](N)CNC(=O)c1nn[nH]n1)C(=O)N[C@@H](CC1CCCCC1)C(=O)N[C@@H](Cc1ccccc1)[C@@H](O)C(=O)Nc1cccc(-c2nn[nH]n2)c1 | > 99 |  | 

Continued, in another order:

inhibition (Beta-secretase 1 [1]) [%] | inhibition (Beta-secretase 1 [3]) [%] | Structure (SMILES) | IC50 (Beta-secretase 1 [2]) [nM]
87 | 50 | CC(C)C[C@H](NC(=O)[C@@H](NC(=O)[C@@H](N)CNC(=O)c1c[nH]cn1)C(C)C)C(=O)N[C@@H](Cc1ccccc1)[C@@H](O)C(=O)Nc1cccc(-c2nn[nH]n2)c1 | 
99 | 89 | CC(C)C[C@H](NC(=O)[C@@H](NC(=O)[C@@H](N)CNC(=O)c1cc(O)ccc1O)C(C)C)C(=O)N[C@@H](Cc1ccccc1)[C@@H](O)C(=O)Nc1cccc(-c2n[nH]c(=S)o2)c1 | 
91 | 58 | CC(C)C[C@H](NC(=O)[C@@H](NC(=O)[C@@H](N)CNC(=O)c1nc[nH]n1)C(C)C)C(=O)N[C@@H](Cc1ccccc1)[C@@H](O)C(=O)Nc1cccc(-c2nn[nH]n2)c1 | 
94 | 64 | CC(C)C[C@H](NC(=O)[C@@H](NC(=O)[C@@H](N)CNC(=O)c1cc(O)ccc1O)C(C)C)C(=O)N[C@@H](Cc1ccccc1)[C@@H](O)C(=O)Nc1cccc(-c2n[nH]c(=S)n2C)c1 | 
99 | 92 | CC(C)C[C@H](NC(=O)[C@@H](NC(=O)[C@@H](N)CNC(=O)c1[nH]c(=O)[nH]c(=O)c1F)C(C)C)C(=O)N[C@@H](Cc1ccccc1)[C@@H](O)C(=O)Nc1cccc(-c2n[nH]c(=S)n2C)c1 | 
> 99 | 93 | CC(C)C[C@H](NC(=O)[C@@H](NC(=O)[C@@H](N)CNC(=O)c1cc(O)ccc1O)C(C)C)C(=O)N[C@@H](Cc1ccccc1)[C@@H](O)C(=O)Nc1cccc(-c2noc(=S)[nH]2)c1 | 
99 | 92 | CC(C)C[C@H](NC(=O)[C@@H](NC(=O)[C@@H](N)CNC(=O)c1cc(O)ccc1O)C(C)C)C(=O)N[C@@H](Cc1ccccc1)[C@@H](O)C(=O)Nc1cccc(-c2nsc(=O)[nH]2)c1 | 
> 99 | 95 | CC(C)C[C@H](NC(=O)[C@@H](NC(=O)[C@@H](N)CNC(=O)c1[nH]c(=O)[nH]c(=O)c1F)C(C)C)C(=O)N[C@@H](Cc1ccccc1)[C@@H](O)C(=O)Nc1cccc(-c2n[nH]c(=S)o2)c1 | 
> 99 | 95 | CC(C)C[C@H](NC(=O)[C@@H](NC(=O)[C@@H](N)CNC(=O)c1[nH]c(=O)[nH]c(=O)c1F)C(C)C)C(=O)N[C@@H](Cc1ccccc1)[C@@H](O)C(=O)Nc1cccc(-c2noc(=S)[nH]2)c1 | 10.2
